Source: patent US10375956B2, “Herbicidally active 2-(substituted-phenyl)-cyclopentane-1,3-dione compounds and derivatives thereof” (Syngenta Limited, priority 2013, dated 2019)

What was measured:
Assay type in all cases: in vivo
[1] = system: Alopecurus myosuroides (ALOMY); assay: Test 1 glasshouse assay, pre-emergence herbicidal activity; conditions: 312 h, visual evaluation after 13 days, read-out: Percentage phytotoxicity ALOMY
Protocol: (§1) Seeds of a variety of test species are sown in standard soil in pots. After cultivation for one day (pre-emergence) or after 8 days cultivation (post-emergence) under controlled conditions in a glasshouse (at 24/16° C., day/night; 14 hours light; 65% humidity), the plants are sprayed with an aqueous spray solution derived from the formulation of the “technical” (i.e. unformulated) active ingredient in acetone/water (50:50) solution containing 0.5% Tween 20 (polyoxyethylene sorbitan monolaurate, CAS Registry Number 9005-64-5). The test plants are then grown on under controlled conditions in a glasshouse (at 24/16° C., day/night; 14 hours light; 65% humidity) and watered twice daily. After 13 days for pre- or post-emergence, the test is evaluated visually, and an assessed percentage phytotoxicity score is given for each herbicidal application on each plant species (where 100%=total damage to plant; 0%=no damage to plant).
(§2) Test plants include the following: Abutilon theophrasti (ABUTH), Amaranthus retroflexus (AMARE): these are dicotyledonous (broadleaved) weeds. Setaria faberi (SETFA), Alopecurus myosuroides (ALOMY), Echinochloa crus-galli (ECHCG): these are grassy monocotyledonous weeds. Also: Zea mays (ZEAMX, corn/maize), which can be a grassy weed (“volunteer” corn) in some circumstances.

[2] = system: Zea mays (ZEAMX, corn/maize); assay: as above; conditions: 312 h, visual evaluation after 13 days, read-out: Percentage phytotoxicity ZEAMX
Protocol: as §1, §2

[3] = system: Echinochloa crus-galli (ECHCG); assay: as above; conditions: 312 h, visual evaluation after 13 days, read-out: Percentage phytotoxicity ECHCG
Protocol: as §1, §2

Setaria faberi (SETFA) [4] = assay: as above; conditions: 312 h, visual evaluation after 13 days, read-out: Percentage phytotoxicity SETFA
Protocol: as §1, §2

[5] = system: Abutilon theophrasti (ABUTH); assay: as above; conditions: 312 h, visual evaluation after 13 days, read-out: Percentage phytotoxicity ABUTH
Protocol: as §1, §2

[6] = system: Amaranthus retroflexus (AMARE); assay: as above; conditions: 312 h, visual evaluation after 13 days, read-out: Percentage phytotoxicity AMARE
Protocol: as §1, §2

[7] = system: Alopecurus myosuroides (ALOMY); assay: Test 1 glasshouse assay, post-emergence herbicidal activity; conditions: 312 h, after 13 days, read-out: Percentage phytotoxicity ALOMY
Protocol: as §1
(§3) Test plants include the following: Abutilon theophrasti (ABUTH) and Amaranthus retroflexus (AMARE); these are all dicotyledonous (broadleaved) weeds. Setaria faberi (SETFA), Alopecurus myosuroides (ALOMY), and Echinochloa crus-galli (ECHCG); these are all grassy monocotyledonous weeds. Also: Zea mays (ZEAMX, corn/maize), which can be a grassy weed (“volunteer” corn) in some circumstances.
(§4) Lolium perenne (LOLPE), Alopecurus myosuroides (ALOMY), Echinochloa crus-galli (ECHCG), and Avena fatua (AVEFA); these are all grassy monocotyledonous weeds. Cool climate crop plant: Triticum aestivum (TRZAW, winter wheat).

[8] = system: Echinochloa crus-galli (ECHCG); assay: as above; conditions: 312 h, after 13 days, read-out: Percentage phytotoxicity ECHCG
Protocol: as §1, §3, §4

[9] = system: Zea mays (ZEAMX, corn/maize); assay: as above; conditions: 312 h, post-emergence (Example 1B Table 1), after 13 days, read-out: Percentage phytotoxicity ZEAMX
Protocol: as §1, §3

Setaria faberi (SETFA) [10] = assay: as above; conditions: 312 h, post-emergence (Example 1B Table 1), after 13 days, read-out: Percentage phytotoxicity SETFA
Protocol: as §1, §3

[11] = system: Abutilon theophrasti (ABUTH); assay: as above; conditions: 312 h, post-emergence (Example 1B Table 1), after 13 days, read-out: Percentage phytotoxicity ABUTH
Protocol: as §1, §3

[12] = system: Amaranthus retroflexus (AMARE); assay: as above; conditions: 312 h, post-emergence (Example 1B Table 1), after 13 days, read-out: Percentage phytotoxicity AMARE
Protocol: as §1, §3

Avena fatua (AVEFA) = assay: as above; conditions: 312 h, post-emergence (Example 1B Table 2), after 13 days, read-out: Percentage phytotoxicity AVEFA
Protocol: as §1, §4

Lolium perenne (LOLPE) = assay: as above; conditions: 312 h, post-emergence (Example 1B Table 2), after 13 days, read-out: Percentage phytotoxicity LOLPE
Protocol: as §1, §4

[13] = system: Triticum aestivum (TRZAW, winter wheat); assay: as above; conditions: 312 h, post-emergence (Example 1B Table 2), after 13 days, crop plant, read-out: Percentage phytotoxicity TRZAW
Protocol: as §1, §4

[14] = post-emergence (Example 1B Table 1), 31.25 g/ha
[15] = post-emergence (Example 1B Table 1)
[16] = post-emergence (Example 1B Table 2), 62.5 g/ha
[17] = post-emergence (Example 1B Table 2)

Row | Compound | pest or weed control at 250 g/ha [1] | pest or weed control at 250 g/ha [2] | pest or weed control at 250 g/ha [3] | pest or weed control at 250 g/ha (Setaria faberi (SETFA) [4]) | pest or weed control at 250 g/ha [5] | pest or weed control at 250 g/ha [6] | pest or weed control at 250 g/ha [7, 15] | pest or weed control at 250 g/ha [8, 15] | pest or weed control at 250 g/ha [9] | pest or weed control at 250 g/ha (Setaria faberi (SETFA) [10]) | pest or weed control at 250 g/ha [11] | pest or weed control at 250 g/ha [12] | further results
1 | C#CCC1CC(=O)C(c2c(C)cc(-c3ncc(Cl)cn3)cc2C)C1=O (stereo not shown) [Compound A5, 2-[4-(5-chloropyrimidin-2-yl)-2,6-dimethylphenyl]-4-prop-2-ynylcyclopentane-1,3-dione] | 100% | 100% | 100% | 100% | 70% | 100% | 100% | 100% | 100% | 100% | 90% | 90% | pest or weed control at 31.25 g/ha [7, 14]: 80%; pest or weed control at 62.5 g/ha [7, 16]: 90%; pest or weed control at 250 g/ha [7, 17]: 100%; pest or weed control at 31.25 g/ha [8, 14]: 100%; pest or weed control at 62.5 g/ha [8, 16]: 100%; pest or weed control at 250 g/ha [8, 17]: 100%; pest or weed control at 31.25 g/ha ([9]; 31.25 g/ha): 100%; pest or weed control at 31.25 g/ha (Setaria faberi (SETFA) [10]; 31.25 g/ha): 100%; pest or weed control at 31.25 g/ha ([11]; 31.25 g/ha): 30%; pest or weed control at 31.25 g/ha ([12]; 31.25 g/ha): 30%; pest or weed control at 62.5 g/ha (Avena fatua (AVEFA); 62.5 g/ha): 100%; pest or weed control at 250 g/ha (Avena fatua (AVEFA); 250 g/ha): 100%; pest or weed control at 62.5 g/ha (Lolium perenne (LOLPE); 62.5 g/ha): 90%; pest or weed control at 250 g/ha (Lolium perenne (LOLPE); 250 g/ha): 100%; plant injury at 62.5 g/ha ([13]; 62.5 g/ha): 80%; plant injury at 250 g/ha ([13]; 250 g/ha): 90%
2 | C#CCC1CC(=O)C(c2cc(-c3ccc(Cl)cn3)ccc2C)C1=O (stereo not shown) [Compound A17] | 70% | 60% | 70% | 70% | 10% | 10% | 70% | 80% | 60% | 80% | 10% | 50% | 
